The IC50 is the concentration that gives 50% inhibition.

The test system of data set [1] is TNF-α. Briefly: Inhibition of TNF-α production following LPS-stimulation of human PBMC. The settings on record: for IC50: human PBMC, LPS, read-out: IC50 for inhibiting production of TNF-α following LPS-stimulation of PBMC; for secretion of the pro-inflammatory cytokine TNF-α: in vitro. Format: cell-based. An excerpt:
(§1) The pharmacological properties of 3-(4-amino-1-oxo-1,3-dihydro-isoindol-2-yl)-piperidine-2,6-dione or 4-(amino)-2-(2,6-dioxo-(3-piperidyl))-isoindoline-1,3-dione, including activity comparisons with thalidomide, are characterized in in vitro studies. Studies examined the effects of 3-(4-amino-1-oxo-1,3-dihydro-isoindol-2-yl)-piperidine-2,6-dione, 4-(amino)-2-(2,6-dioxo-(3-piperidyl))-isoindoline-1,3-dione or thalidomide on the production of various cytokines.
(§2) Inhibitions of TNF-α production following LPS-stimulation of human PBMC and human whole blood by an immunomodulatory compound such as 3-(4-amino-1-oxo-1,3-dihydro-isoindol-2-yl)-piperidine-2,6-dione, 4-(amino)-2-(2,6-dioxo-(3-piperidyl))-isoindoline-1,3-dione or thalidomide were investigated in vitro.

Data set [2] relates to TNF-α. Briefly: Inhibition of TNF-α production following LPS-stimulation of human whole blood. It counts as cell-based. The settings on record: read-out: IC50 for inhibiting production of TNF-α following LPS-stimulation of human whole blood.
Source text: as §2

For the next data set, the system named is IL1β. Briefly: LPS-stimulated production of IL1β by PBMC. Format: cell-based. The settings on record: for secretion of the pro-inflammatory cytokine IL1β: in vitro.
Source text: as §1

Another data set deals with IL6. Briefly: LPS-stimulated production of IL6 by PBMC. The settings on record: for secretion of the pro-inflammatory cytokine IL6: in vitro. It counts as cell-based.
Source text: as §1

The next data set relates to IL10. Briefly: Production of anti-inflammatory cytokine IL10 by PBMC. It counts as cell-based. The settings on record: for production of the anti-inflammatory cytokine IL10: PBMC; for secretion of the anti-inflammatory cytokine IL10: in vitro.
Source text: as §1

The next data set relates to TNF-α mRNA. Briefly: Degradation of TNF-α mRNA. Format: cell-based. The settings on record: in vitro.
Source text: as §1

Another data set concerns T-cells. Nature of the data set: Proliferation of T-cells following primary induction by T-cell receptor (TCR) activation. The settings on record: in vitro. Format: cell-based.
Source text: as §1

The next data set deals with IL2. Nature of the data set: IL2 production following TCR activation of PBMC. It counts as cell-based. The settings on record: in vitro.
Source text: as §1

Another data set deals with IFN-γ. Nature of the data set: IFN-γ production following TCR activation of T-cells. Format: cell-based. The settings on record: in vitro.
Source text: as §1

Data set [3] has as its system cardiovascular and respiratory functions. The settings on record: dog, in vivo; for arterial blood pressure: 2 mg/kg. The protocol: In addition, a safety pharmacology study of 3-(4-amino-1-oxo-1,3-dihydro-isoindol-2-yl)-piperidine-2,6-dione or 4-(amino)-2-(2,6-dioxo-(3-piperidyl))-isoindoline-1,3-dione was conducted in dogs. The effects of the compound on cardiovascular and respiratory functions were examined in anesthetized dogs. One group of Beagle dogs (2/sex/group) received three doses of vehicle only and the other received three ascending doses of 2, 10 and 20 mg/kg of the compound. […] The cardiovascular and respiratory changes induced by the compound were minimal at all doses when compared to the vehicle control group.

Data set [4] concerns actinic or senile keratoses. Nature of the data set: Clinical study in patients with actinic or senile keratoses. It counts as in vivo, human. The settings on record: oral 25 mg daily, continuous, baseline vs after eight weeks, FIG. 1. The procedure: 3-(4-Amino-1-oxo-1,3-dihydro-isoindol-2-yl)-piperidine-2,6-dione or 4-(amino)-2-(2,6-dioxo-(3-piperidyl))-isoindoline-1,3-dione is administered in an amount of from about 1 to about 25 mg per day to patients with keratoses for eight weeks, and the responses are subsequently assessed. For example, clinical studies are performed for 3-(4-amino-1-oxo-1,3-dihydro-isoindol-2-yl)-piperidine-2,6-dione in patients with actinic or senile keratoses. Patients receive continuous treatment with the compound at a oral dose of 25 mg daily.

A further data set relates to wrinkles. Nature of the data set: Clinical study in patients with wrinkles. It counts as in vivo, human. The settings on record: oral about 5 mg daily, continuous. The protocol: 3-(4-Amino-1-oxo-1,3-dihydro-isoindol-2-yl)-piperidine-2,6-dione or 4-(amino)-2-(2,6-dioxo-(3-piperidyl))-isoindoline-1,3-dione is administered in an amount of from about 1 to about 25 mg per day to reduce or correct wrinkles of patients. For example, clinical studies are performed for 3-(4-amino-1-oxo-1,3-dihydro-isoindol-2-yl)-piperidine-2,6-dione in patients with wrinkles. Patients receive continuous treatment with the compound at a oral dose of about 5 mg daily.

Another data set deals with acne. Briefly: Clinical study in acne. The settings on record: oral about 5 mg daily, continuous. It counts as in vivo, human. The procedure: 3-(4-Amino-1-oxo-1,3-dihydro-isoindol-2-yl)-piperidine-2,6-dione or 4-(amino)-2-(2,6-dioxo-(3-piperidyl))-isoindoline-1,3-dione is administered in an amount of from about 1 to about 25 mg per day to treat acne. Patients receive continuous treatment with the compound at a oral dose of about 5 mg daily.

The conditions of data set [5]: cited from earlier work; for interconversion in acetone: acetone (and other anhydrous) solvent systems.

In brackets after ≈: the same amount, converted by molar mass. Several values for one entry are separate records, joined by “and”; a condition that tells them apart may be missing. Equal entries are not always repeated.

With `Nc1cccc2c1CN(C1CCC(=O)NC1=O)C2=O` (stereo not shown) [3-(4-amino-1-oxo-1,3-dihydro-isoindol-2-yl)-piperidine-2,6-dione], in the data set with TNF-α [1], the “LPS-stimulated production of TNF-α by PBMC” value was “dose-dependent inhibition”; the concentration for half-maximal inhibition (IC50) was ~100 nM and 0.0259 µg/mL; the “secretion of the pro-inflammatory cytokine TNF-α” value is listed as “markedly inhibited”. In addition, the IC50 in the data set on TNF-α [2] was ~480 nM and 0.104 µg/mL. Also, in the data set on IL1β, the “LPS-stimulated production of IL1β by PBMC” value was “dose-dependent inhibition” and the “secretion of the pro-inflammatory cytokine IL1β” value was “markedly inhibited”. Also, in the data set with IL6, the “LPS-stimulated production of IL6 by PBMC” value was “dose-dependent inhibition” and the “secretion of the pro-inflammatory cytokine IL6” value is listed as “markedly inhibited”. Further, in the data set on IL10, the “production of the anti-inflammatory cytokine IL10” value was “increased” and the “secretion of the anti-inflammatory cytokine IL10” value was “increased”. Besides, in the data set with TNF-α mRNA, the “degradation of TNF-α mRNA” value is “enhanced”. Also, the T-cell proliferation entry in the data set on T-cells is “induced”. In addition, the IL2 production entry in the data set on IL2 was “induced”. In the data set on IFN-γ, the IFN-γ production result is reported as “induced”. Moreover, in [3], the “deviations in femoral blood flow, respiratory parameters and QTc interval” value is recorded as “not considered treatment-related”; the arterial blood pressure entry was “small transient increase”. Besides, the “clinical response in patients with actinic or senile keratoses” value in data set [4] is “remarkable clinical benefit”. Moreover, in the data set with wrinkles, the “clinical response in patients with wrinkles” value was “remarkable clinical benefit”. For the same compound, in the data set with acne, the “acne (size and number of visible cutaneous infections and/or pimples)” value is “significant improvements”.

As to `Nc1cccc2c1C(=O)N(C1CCC(=O)NC1=O)C2=O` (stereo not shown) [4-(amino)-2-(2,6-dioxo(3-piperidyl))-isoindoline-1,3-dione], in the data set with TNF-α [1], the “LPS-stimulated production of TNF-α by PBMC” value is reported as “dose-dependent inhibition”; the IC50 was ~24 nM and 0.00655 µg/mL; the “secretion of the pro-inflammatory cytokine TNF-α” value is reported as “markedly inhibited”. Further, in the data set with TNF-α [2], the IC50 is ~25 nM and 0.00683 µg/mL. In the data set with IL1β, the “LPS-stimulated production of IL1β by PBMC” value is listed as “dose-dependent inhibition” and the “secretion of the pro-inflammatory cytokine IL1β” value was “markedly inhibited”. In the data set on IL6, the “LPS-stimulated production of IL6 by PBMC” value is listed as “dose-dependent inhibition” and the “secretion of the pro-inflammatory cytokine IL6” value is given as “markedly inhibited”. Also, in the data set on IL10, the “production of the anti-inflammatory cytokine IL10” value is “increased” and the “secretion of the anti-inflammatory cytokine IL10” value is listed as “increased”. In addition, the “degradation of TNF-α mRNA” value in the data set with TNF-α mRNA is listed as “enhanced”. In addition, in the data set on T-cells, the T-cell proliferation entry is listed as “induced”. Further, the IL2 production result in the data set on IL2 is on record as “induced”. Also, the IFN-γ production entry in the data set with IFN-γ is given as “induced”. In addition, in data set [3], the “deviations in femoral blood flow, respiratory parameters and QTc interval” value is given as “not considered treatment-related”; the arterial blood pressure result is on record as “small transient increase”. The “acne (size and number of visible cutaneous infections and/or pimples)” value with acne is reported as “significant improvements”.

With `Nc1cccc2c1CN(C1CCC(=O)NC1=O)C2=O` (stereo not shown) [Form B, 3-(4-amino-1-oxo-1,3 dihydro-isoindol-2-yl)-piperidene-2,6-dione], the “form conversion upon heating” value in data set [5] (175° C. for about five minutes) is “convert to Form F”. For the same compound, in data set [5], the interconversion in acetone result is recorded as “converts to other forms”. Moreover, the “form stability / interconversion in aqueous solvent systems” value in [5] (aqueous solvent systems) is given as “converts to Form E”.

On to `Nc1cccc2c1CN(C1CCC(=O)NC1=O)C2=O` (stereo not shown) [Form C, 3-(4-amino-1-oxo-1,3 dihydro-isoindol-2-yl)-piperidene-2,6-dione], for which the hygroscopicity result in data set [5] (below about 85% RH) is given as “not hygroscopic”. For the same compound, the “form conversion at higher relative humidities” value in data set [5] is listed as “can convert to Form B”.

For the compound `Nc1cccc2c1CN(C1CCC(=O)NC1=O)C2=O` (stereo not shown) [Form D, 3-(4-amino-1-oxo-1,3 dihydro-isoindol-2-yl)-piperidene-2,6-dione], the “form conversion at higher relative humidities” value in data set [5] is “convert to Form B”.

As for `Nc1cccc2c1CN(C1CCC(=O)NC1=O)C2=O` (stereo not shown) [Form E, 3-(4-amino-1-oxo-1,3 dihydro-isoindol-2-yl)-piperidene-2,6-dione], the “interconversion in THF” value in data set [5] (THF solvent system) is listed as “Form G”. Further, in data set [5] (about 125° C. for about five minutes), the “form conversion upon heating (desolvation)” value is recorded as “convert to Form B”. The interconversion in acetone entry in data set [5] is reported as “convert to Form C”.

Take `O=C1CCC(N2C(=O)c3ccccc3C2=O)C(=O)N1` (stereo not shown) [Thalidomide, thalidomide, reference compound]: the IC50 in the data set on TNF-α [1] stood at 50.1 µg/mL (≈ 194 µM).

Values taken from US20050214328A1, “Methods of using and compositions comprising immunomodulatory compounds for the treatment and management of skin diseases or disorders” (priority 2004, published 2005).
